# PubChem BioAssay (NCI)
#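 Cultured in 96-well plates, cells were exposed to test compound for 48 hours across five concentrations. At the GI50, growth is halved. At the TGI there is no net growth.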
# What was measured:
# Test in all cases: inhibition of tumour cell growth, NCI panel, 48 h
# MOLT-4 leukemia = test system: MOLT-4 leukemia
# NCI-H226 lung = test system: NCI-H226 lung
# NCI-H23 lung = test system: NCI-H23 lung
# NCI-H460 lung = test system: NCI-H460 lung
# NCI-H522 lung = test system: NCI-H522 lung
# OVCAR-3 ovarian = test system: OVCAR-3 ovarian
# OVCAR-4 ovarian = test system: OVCAR-4 ovarian
# OVCAR-5 ovarian = test system: OVCAR-5 ovarian
# OVCAR-8 ovarian = test system: OVCAR-8 ovarian
# PC-3 prostate = test system: PC-3 prostate
# RPMI-8226 leukemia = test system: RPMI-8226 leukemia
# RXF 393 renal = test system: RXF 393 renal
# SF-268 CNS = test system: SF-268 CNS
# SF-295 CNS = test system: SF-295 CNS
# SF-539 CNS = test system: SF-539 CNS
# SK-MEL-2 melanoma = test system: SK-MEL-2 melanoma
# SK-MEL-28 melanoma = test system: SK-MEL-28 melanoma
# SK-MEL-5 melanoma = test system: SK-MEL-5 melanoma
# SK-OV-3 ovarian = test system: SK-OV-3 ovarian
# SN12C renal = test system: SN12C renal
# SNB-19 CNS = test system: SNB-19 CNS
# SR leukemia = test system: SR leukemia
# SW-620 colon = test system: SW-620 colon
# T-47D breast = test system: T-47D breast
# TK-10 renal = test system: TK-10 renal
# U251 CNS = test system: U251 CNS
# UACC-257 melanoma = test system: UACC-257 melanoma
# UACC-62 melanoma = test system: UACC-62 melanoma
# UO-31 renal = test system: UO-31 renal
smiles,measurement,setting,value
CN(C)c1nc(NCCNS(=O)(=O)c2ccc(C3=Nc4c(N)nc(N)nc4NC(c4ccc(C(F)(F)F)cc4)C3)cc2)nc(N2CCOCC2)n1 (configuration not stated),TGI,MOLT-4 leukemia,> 100 µM
same,GI50,NCI-H226 lung,17.6 µM
same,TGI,NCI-H226 lung,> 100 µM
same,GI50,NCI-H23 lung,37.6 µM
same,TGI,NCI-H23 lung,> 100 µM
same,GI50,NCI-H460 lung,36.5 µM
same,TGI,NCI-H460 lung,> 100 µM
same,GI50,NCI-H522 lung,51.7 µM
same,TGI,NCI-H522 lung,> 100 µM
same,GI50,OVCAR-3 ovarian,53.9 µM
same,TGI,OVCAR-3 ovarian,> 100 µM
same,GI50,OVCAR-4 ovarian,37 µM
same,TGI,OVCAR-4 ovarian,> 100 µM
same,GI50,OVCAR-5 ovarian,27 µM
same,TGI,OVCAR-5 ovarian,95.9 µM
same,GI50,OVCAR-8 ovarian,59.5 µM
same,TGI,OVCAR-8 ovarian,> 100 µM
same,GI50,PC-3 prostate,24.6 µM
same,TGI,PC-3 prostate,> 100 µM
same,GI50,RPMI-8226 leukemia,11.2 µM
same,TGI,RPMI-8226 leukemia,> 100 µM
same,GI50,RXF 393 renal,10.3 µM
same,TGI,RXF 393 renal,45.5 µM
same,GI50,SF-268 CNS,19.9 µM
same,TGI,SF-268 CNS,> 100 µM
same,GI50,SF-295 CNS,21.1 µM
same,TGI,SF-295 CNS,83.7 µM
same,GI50,SF-539 CNS,22.5 µM
same,TGI,SF-539 CNS,87.9 µM
same,GI50,SK-MEL-2 melanoma,15.8 µM
same,TGI,SK-MEL-2 melanoma,30.2 µM
same,GI50,SK-MEL-28 melanoma,34.1 µM
same,TGI,SK-MEL-28 melanoma,> 100 µM
same,GI50,SK-MEL-5 melanoma,15.9 µM
same,TGI,SK-MEL-5 melanoma,30.1 µM
same,GI50,SK-OV-3 ovarian,69.7 µM
same,TGI,SK-OV-3 ovarian,> 100 µM
same,GI50,SN12C renal,35.7 µM
same,TGI,SN12C renal,> 100 µM
same,GI50,SNB-19 CNS,30 µM
same,TGI,SNB-19 CNS,> 100 µM
same,GI50,SR leukemia,18.1 µM
same,TGI,SR leukemia,> 100 µM
same,GI50,SW-620 colon,46.9 µM
same,TGI,SW-620 colon,> 100 µM
same,GI50,T-47D breast,21.3 µM
same,TGI,T-47D breast,> 100 µM
same,GI50,TK-10 renal,54.4 µM
same,TGI,TK-10 renal,> 100 µM
same,GI50,U251 CNS,24.2 µM
same,TGI,U251 CNS,> 100 µM
same,GI50,UACC-257 melanoma,20.4 µM
same,TGI,UACC-257 melanoma,54.9 µM
same,GI50,UACC-62 melanoma,16.4 µM
same,TGI,UACC-62 melanoma,36.4 µM
same,GI50,UO-31 renal,> 100 µM
same,TGI,UO-31 renal,> 100 µM
